Literature values as cited in patent publication US20040106561A1, “Health supplement” (Novogen Research Pty. Ltd., priority 1992, published 2004).

System: oestrogen receptors
Settings: animal and in vitro studies

oestrogenic/anti-oestrogenic activity and SHBG-stimulating capacity relative to daidzein and formononetin	SMILES
approximately 10 times	O=c1c(-c2ccc(O)cc2)coc2cc(O)cc(O)c12 [genistein]

Same assay, conditions: in vitro and in vivo studies; descending order genistein, biochanin A, equol, daidzein, formononetin

SMILES	oestrogenic activity
CC(C(=O)c1ccc(O)cc1O)c1ccc(O)cc1 (stereo not shown) [O-desmethylangolensin]	only very weakly oestrogenic
COc1ccc(-c2coc3cc(O)cc(O)c3c2=O)cc1 [biochanin A]	oestrogenic activity
O=c1c(-c2ccc(O)cc2)coc2cc(O)ccc12 [daidzein]	oestrogenic activity
Oc1ccc([C@H]2COc3cc(O)ccc3C2)cc1 [equol]	oestrogenic activity

Second part, the compound after the results:

oestrogenic activity	SMILES
oestrogenic activity	O=c1c(-c2ccc(O)cc2)coc2cc(O)cc(O)c12 [genistein]
non-oestrogenic	COc1cc2c(=O)c(-c3ccc(O)cc3)coc2cc1O [glycitein]
